According to publication PMC5995184, “Potent anti-leukemic activity of a specific cyclin-dependent kinase 9 inhibitor in mouse models of chronic lymphocytic leukemia” (Oncotarget, 2018):

System: MEC-1 cells
Assay: MEC-1 cell line apoptosis, viability, MCL-1/BCL-2 and cell cycle (flow cytometry)
Assay type: cell-based
Description: The MEC-1 cell line was obtained from the DSMZ (Braunschweig, Germany) and was cultured in RPMI (10% fetal bovine serum). A LDC526 stock solution was prepared with DMSO, diluted and added to the cultures to reach the specified concentrations. Samples (percentage of CD19+CD5+ CLL cells >90%) of n=37 CLL patients (Table 1) and n=6 healthy normal donor controls were used for experiments after obtaining informed consent according to institutional guidelines, approved by the Ethics Commission of the University of Essen-Duisburg. Peripheral blood mononuclear cells (PBMC) were isolated using Lymphoprep ([…] Technologies, Cologne, Germany) density gradient centrifugation and were used directly for NSG transplantation or in vitro experiments. Untouched normal donor B cells were isolated with a B cell isolation kit (Miltenyi, Bergisch Gladbach, Germany) according to the manufacturer’s instructions. For in vitro experiments, cells were maintained in RPMI supplemented with 10% fetal bovine serum, penicillin and streptomycin.
Apoptosis and cell death were determined by using Annexin V (BD Biosciences, Heidelberg, Germany) and 4′,6-Diamidin-2-phenylindol (DAPI, Sigma-Aldrich) staining. Erythrocytes of murine peripheral blood samples were lysed with NH4Cl hypotonic solution. Single cell suspensions of murine spleens were prepared as previously described. Murine cells were stained with antibodies directed against murine CD3 (clone 145-2C11), CD5 (53-7.3) and CD19 (1D3), respectively. For the detection of human cells in NSG spleens antibodies against human CD3 (clone SK7), CD4 (SK3), CD5 (L17F12), CD8 (SK1), CD19 (J3-119 or SJ25C1) and CD45 (2D1) were used (purchased from BD Bioscience, Biolegend and Beckman Coulter). Flow cytometric analysis was carried out on a LSRII flow cytometer (BD Biosciences, Heidelberg, Germany). Flow cytometric data were analyzed with BD FACSDiva or FlowJo software (FLOWJO, LLC, Ashland, OR, USA). Intracellular staining for MCL-1 and BCL-2 (anti-MCL-1 [clone D2W9E, Cell Signaling Technology, Leiden, The Netherlands] and matched isotype control [clone DA1E, Cell Signaling Technology]; anti-BCL-2 [clone Bcl-2/100, BD Bioscience] and matched isotype control [clone MOPC-21, BD Bioscience]) within MEC-1 and primary CLL cells was performed with the FoxP3 / Transcription factor staining buffer set (eBioscience/Thermo Fisher Scientific, Dreieich, Germany) according to the manufacturer’s instructions. Before permeabilization and antibody incubation cells were stained with a fixable viability dye (eFluor 450, eBioscience/Thermo Fisher Scientific). Before adding the anti-MCL-1 and anti-BCL-2 antibodies permeabilized cells were blocked with 2% mouse serum and 2% rabbit serum (Sigma-Aldrich) in permeabilization buffer. Intracellullar murine lymphocyte staining for Bcl-2 was carried out with the BD Cytofix/Cytoperm kit according to the manufacturer’s instructions. A Hamster Anti-mouse Bcl-2 (clone 3F119, BD Biosciences) and a corresponding isotype control (clone A19-3) were used. Dead cells and doublets were excluded by and FSC/SSC gating and positive DAPI or eFluor 450 viability dye staining, respectively. To assess the impact of LDC526 on the cell-cycle status of MEC-1 cells we used the BrdU Flow Kit according to the manufacturer’s protocol (BD Bioscience). […]
Data were analyzed with GraphPad Prism 7 software. Differences were assessed by unpaired or paired Student t tests if not indicated otherwise. […]

COc1cc(F)ccc1-c1ncnc(Nc2cccc(CS(N)(=O)=O)c2)n1 [LDC526, (3-((4-(4-fluoro-2-methoxyphenyl)-1,3,5-triazin-2-yl)amino)phenyl)methane-sulfonamide]
MEC-1 apoptosis (Annexin V+, DAPI-) (4 hours, 500 nM and 1 μM): significantly increased MEC-1 apoptosis
intracellular MCL-1 protein levels in MEC-1 (4 hours, increasing concentrations): reduced
MEC-1 S-phase entry (BrdU) (24 hours, 10 μM): significantly decreased
MEC-1 cell cycle (BrdU) (24 hours, concentrations up to 1 μM): did not alter the cell cycle
IC50 (Homo sapiens, MEC1, 48 hours incubation, read-out: IC50, MEC-1 absolute viable cell numbers): 550 nM
